Numbers after ± are expanded uncertainties.
Experiment: wn = mass fraction of the nth substance listed
Conditions: 101.3 kPa, Liquid, w1 = 0.3

Row | mass density (293.15 K) | viscosity (293.15 K) | mass density (298.15 K) | viscosity (298.15 K) | mass density (303.15 K) | viscosity (303.15 K) | mass density (308.15 K) | viscosity (308.15 K) | mass density (313.15 K) | viscosity (313.15 K) | mass density (318.15 K) | viscosity (318.15 K) | mass density (323.15 K) | viscosity (323.15 K) | SMILES
1 | 999.85 ± 1.1 kg/m3 | 4.89 ± 0.43 mPa·s | 997.41 ± 1.1 kg/m3 | 3.79 ± 0.34 mPa·s | 994.62 ± 1.1 kg/m3 | 3.21 ± 0.29 mPa·s | 991.22 ± 1.1 kg/m3 | 2.8 ± 0.25 mPa·s | 988.72 ± 1.2 kg/m3 | 2.24 ± 0.21 mPa·s | 986.24 ± 1.2 kg/m3 | 1.92 ± 0.18 mPa·s | 983.13 ± 1.3 kg/m3 | 1.58 ± 0.15 mPa·s | CC(C)(N)CO [2-amino-2-methylpropan-1-ol] + O
2 | 1015.3 ± 1.1 kg/m3 | 2.63 ± 0.24 mPa·s | 1012.1 ± 1.1 kg/m3 | 2.2 ± 0.2 mPa·s | 1009.2 ± 1.1 kg/m3 | 2.1 ± 0.19 mPa·s | 1004.9 ± 1.1 kg/m3 | 1.85 ± 0.17 mPa·s | 1003.2 ± 1.2 kg/m3 | 1.6 ± 0.15 mPa·s | 1001 ± 1.2 kg/m3 | 1.5 ± 0.14 mPa·s | 997.76 ± 1.3 kg/m3 | 1.29 ± 0.12 mPa·s | NCCO [2-aminoethan-1-ol] + O
3 | 1042.7 ± 1.1 kg/m3 | 4.22 ± 0.37 mPa·s | 1037.4 ± 1.1 kg/m3 | 3.26 ± 0.3 mPa·s | 1033.2 ± 1.1 kg/m3 | 2.57 ± 0.23 mPa·s | 1029.1 ± 1.2 kg/m3 | 2.51 ± 0.23 mPa·s | 1026.4 ± 1.2 kg/m3 | 1.97 ± 0.18 mPa·s | 1022.7 ± 1.3 kg/m3 | 1.72 ± 0.16 mPa·s | 1019.3 ± 1.3 kg/m3 | 1.41 ± 0.13 mPa·s | OCCNCCO [diethanolamine] + O

Row | SMILES | mass density (293.15 K) | viscosity (293.15 K) | mass density (298.15 K) | viscosity (298.15 K) | mass density (303.15 K) | viscosity (303.15 K) | mass density (308.15 K) | viscosity (308.15 K) | mass density (313.15 K) | viscosity (313.15 K) | mass density (318.15 K) | viscosity (318.15 K) | mass density (323.15 K) | viscosity (323.15 K)
4 | CN(CCO)CCO [N-methyldiethanolamine] + O | 1032.2 ± 1.1 kg/m3 | 3.46 ± 0.31 mPa·s | 1027.5 ± 1.1 kg/m3 | 3.02 ± 0.27 mPa·s | 1023.1 ± 1.1 kg/m3 | 2.68 ± 0.24 mPa·s | 1019.9 ± 1.2 kg/m3 | 2.27 ± 0.21 mPa·s | 1018.2 ± 1.2 kg/m3 | 1.92 ± 0.18 mPa·s | 1014.2 ± 1.3 kg/m3 | 1.72 ± 0.16 mPa·s | 1011.2 ± 1.3 kg/m3 | 1.49 ± 0.14 mPa·s
